Data taken from PMC11502347 (Frontiers in Microbiology, 2024).

Assays:
[1] = test system: Mtb CF 44 (mono-resistant to isoniazid); assay type: cell-based, Mycobacterium tuberculosis; conditions: Mono INH clinical isolate; REMA, 7H9 + 10% OADC, 7 days
[2] = test system: Mtb CF 184 (mono-resistant to isoniazid); assay type: cell-based, Mycobacterium tuberculosis; conditions: Mono INH clinical isolate; REMA, 7 days

SMILES	CIM90 CF 44 [1]	CIM90 CF 184 [2]
NCC[C@H](O)C(=O)N[C@@H]1C[C@H](N)[C@@H](O[C@H]2O[C@H](CN)[C@@H](O)[C@H](O)[C@H]2O)[C@H](O)[C@H]1O[C@H]1O[C@H](CO)[C@@H](O)[C@H](N)[C@H]1O [AMK, amikacin]	1,48 ± 1,12 μM	0,24 ± 0,00 μM
O=C(Nc1ccc(N2CCSCC2)c(F)c1)c1ccc2no[n+]([O-])c2c1 [Compound 5b]	0,52 ± 0,09 μM	0,37 ± 0,15 μM
O=C(Nc1ccc(N2CCN(c3ccccn3)CC2)c(F)c1)c1ccc2no[n+]([O-])c2c1 [Compound 5n]	4,71 ± 3,11 μM	0,96 ± 1,04 μM
NNC(=O)c1ccncc1 [INH, isoniazid]	> 182,30 μM	> 182,30 μM
CO[C@H]1/C=C/O[C@@]2(C)Oc3c(C)c(O)c4c(O)c(c(/C=N/N5CCN(C)CC5)c(O)c4c3C2=O)NC(=O)/C(C)=C\C=C\[C@H](C)[C@H](O)[C@@H](C)[C@@H](O)[C@@H](C)[C@H](OC(C)=O)[C@@H]1C [RFP, rifampicin]	0,05 ± 0,01 μM	0,05 ± 0,01 μM
